Assay results from paper PMC3747428, “Asymmetry of the Active Site Loop Conformation between Subunits of Glutamate-1-semialdehyde Aminomutase in Solution” (BioMed Research International, 2013).

How the values were obtained:
[1] = molecular target: T1, Glutamate-1-semialdehyde aminomutase (GSAM) from Synechococcus (Synechococcus elongatus, UniProt P24630); assay: half-transamination converting native enzyme into PMP form, followed by gel filtration and absorbance; assay type: biochemical; details: reaction intermediate, racemic, 5 mM; 100 mM Na-Tricine pH 7.9
T1 construct: gene hemL; homodimer; mobile loop residues 153-181; Trp53 and Trp67
T1 sequence (P24630 2-433): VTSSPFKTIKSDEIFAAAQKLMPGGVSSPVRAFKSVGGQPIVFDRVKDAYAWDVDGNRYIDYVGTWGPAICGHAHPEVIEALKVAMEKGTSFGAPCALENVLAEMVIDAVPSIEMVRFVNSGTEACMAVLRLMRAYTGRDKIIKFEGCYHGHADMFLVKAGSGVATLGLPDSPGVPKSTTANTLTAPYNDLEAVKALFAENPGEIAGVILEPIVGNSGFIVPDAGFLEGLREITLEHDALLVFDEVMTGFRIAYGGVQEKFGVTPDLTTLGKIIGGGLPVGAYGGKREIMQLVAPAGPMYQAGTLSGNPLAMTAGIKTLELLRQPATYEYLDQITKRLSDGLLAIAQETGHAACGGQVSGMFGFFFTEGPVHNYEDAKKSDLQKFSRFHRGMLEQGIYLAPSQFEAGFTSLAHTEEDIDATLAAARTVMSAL

[2] = molecular target: T1, Glutamate-1-semialdehyde aminomutase (GSAM) from Synechococcus; assay: half-transamination converting native enzyme into PLP form, followed by gel filtration and absorbance; assay type: biochemical; details: substrate analogue, 20 mM; 100 mM Na-Tricine pH 7.9

NCC(N)CCC(=O)O (racemic) [DAVA, 4,5-diaminovalerate]
half-transamination converting native enzyme into PMP form, followed by gel filt [1]: the PMP form (PMP-GSAM), obtained by the addition of DAVA

O=CCCC(=O)O [succinic semialdehyde]
half-transamination converting native enzyme into PLP form, followed by gel filt [2]: PLP-GSAM), obtained by treating the native enzyme with succinic-1-semialdehyde
